Assay results from PubChem BioAssay AID1918991 (Molecular Pharmacology Branch, DTP, NCI, 2023).

Test system: 186277-243-T-J2-PDC complex spheroid growth
Experiment: Anticancer human tumor 186277-243-T-J2-PDC patient-derived colon adenocarcinoma cell line growth inhibition [AhR]
Settings: for IC50: curve of first compound; for viability, T/C: stronger effect = lower value
Outline: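 Agents were dosed in half-log steps down from roughly clinical Cmax, or from 10 microM where Cmax was unknown, alone and with AhR antagonists. Read-out: percent test/control growth of tumor spheroids containing HUVEC and MSC stromal cells.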
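Also: spheroids exposed to compounds for seven days before the viability read.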
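For viability, T/C in this document: luminescent signal used as a stand-in for viable cell amount; 100% = DMSO vehicle control wells.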

`CC1COCCN1c1cc(C2(S(C)(=N)=O)CC2)nc(-c2ccnc3[nH]ccc23)n1` (stereo not given) + Cc1cncc(-c2nc(NCCc3c[nH]c4ccccc34)c3ncn(C(C)C)c3n2)c1 gave an IC50 (second compound 0.1 µM) of 4.07 µM, an IC50 (second compound 0.316 µM) of 3.99 µM and an IC50 (second compound 1 µM) of 3.72 µM. It also gave an IC50 (second compound 3.16 µM) of 2.9 µM, an IC50 (second compound 10 µM) of 1.3 µM and a viability, T/C (second compound 0.1 µM, first compound 0.0316 µM) of 85.5%. It also gave a viability, T/C (second compound 0.1 µM, first compound 0.1 µM) of 119%, a viability, T/C (second compound 0.1 µM, first compound 0.316 µM) of 91.6% and a viability, T/C (second compound 0.1 µM, first compound 1 µM) of 99.5%. For the same compound, the viability, T/C (second compound 0.1 µM, first compound 3.16 µM) was 62%, the viability, T/C (second compound 0.1 µM, first compound 10 µM) was 6.76% and the viability, T/C (second compound 0.316 µM, first compound 0.0316 µM) was 96.8%. The viability, T/C (second compound 0.316 µM, first compound 0.1 µM) was 97.2%, the viability, T/C (second compound 0.316 µM, first compound 0.316 µM) was 87.3% and the viability, T/C (second compound 0.316 µM, first compound 1 µM) was 106%. For the same compound, the viability, T/C (second compound 0.316 µM, first compound 3.16 µM) was 60.9%, the viability, T/C (second compound 0.316 µM, first compound 10 µM) was 7.2% and the viability, T/C (second compound 1 µM, first compound 0.0316 µM) was 95.4%. The viability, T/C (second compound 1 µM, first compound 0.1 µM) was 106%, the viability, T/C (second compound 1 µM, first compound 0.316 µM) was 97.3% and the viability, T/C (second compound 1 µM, first compound 1 µM) was 106%. It also gave a viability, T/C (second compound 1 µM, first compound 3.16 µM) of 57.1%, a viability, T/C (second compound 1 µM, first compound 10 µM) of 7.29% and a viability, T/C (second compound 3.16 µM, first compound 0.0316 µM) of 105%. It also gave a viability, T/C (second compound 3.16 µM, first compound 0.1 µM) of 105%, a viability, T/C (second compound 3.16 µM, first compound 0.316 µM) of 102% and a viability, T/C (second compound 3.16 µM, first compound 1 µM) of 105%. It also gave a viability, T/C (second compound 3.16 µM, first compound 3.16 µM) of 45.5%, a viability, T/C (second compound 3.16 µM, first compound 10 µM) of 8.1% and a viability, T/C (second compound 10 µM, first compound 0.0316 µM) of 79.2%. It also gave a viability, T/C (second compound 10 µM, first compound 0.1 µM) of 79%, a viability, T/C (second compound 10 µM, first compound 0.316 µM) of 70.1% and a viability, T/C (second compound 10 µM, first compound 1 µM) of 60.6%. The viability, T/C (second compound 10 µM, first compound 3.16 µM) was 18.6% and the viability, T/C (second compound 10 µM, first compound 10 µM) was 5.52%.
